In brackets after ≈: the same amount, converted by molar mass. Read-outs that look alike come from different tables or passages of the source. Each block holds one compound with its values, some of them ahead of it.
Columns and labels:
[1] = Water solubility of hydroxyitraconazole phosphate isomers (NMG salts); format: physicochemical; conditions: water; Table 8
Excerpt: The water solubility of the NMG salts of the phosphate esters of isomers 1, 2 and 3+4 were investigated and compared to the corresponding hydroxyitraconazole isomers 1, 2 and 3+4. The phosphate esters were as much as 10^7 times more water soluble than the corresponding hydroxyitraconazole isomer.

[2] = Water solubility of hydroxyitraconazole isomers and itraconazole; format: physicochemical; conditions: water; LOD: 5000 μV*sec; order-of-magnitude accuracy below LOD; 3+4 and 11+12 ±10%
Procedure: The isomers of cis hydroxyitraconazole were tested for water solubility against a […] standard solution of hydroxyitraconazole. […] The values for 3+4 and 11+12 are barely above the LOD, giving accuracies of ±10%. In every case, solubilities were in the 10^1 to 10^2 ng/ml range.

[3] = test system: Candida albicans; assay: Antifungal MIC, Candida albicans; format: cell-based; conditions: Candida albicans
Procedure: (§1) A 10 mL tube containing 4 mL of Sabourauds dextrose broth was inoculated with 1 colony of Candida albicans picked from a plate of pure culture. The strain was ordered from the American Type Culture Collection (ATCC). The organism was grown for 4 hours at 30° C. while shaking at 150 RPM. While the organism was growing, samples of hydroxy-itraconazoles were solubilized to a concentration of 10 mg/mL in DMSO. Each sample was then diluted 1:10 to make 1 mg/mL samples or 1000 μg/mL. These samples were then diluted by serial 2-fold dilutions to produce samples now containing 1000, 500, 250, 125, 62.5, 31.25, 15.6 μg/mL. […] At 4 hours of growth time the Candida albicans was diluted to a 0.5 McFarland standard representing about 10^5 -10^6 cells/mL and 1 μL of this inoculum placed into each test well of the microtiter dish. The dish was then covered and incubated at 30° C. for 16 hours.

[4] = test system: Sacchromyces cerevisae; assay: Kirby-Bauer Testing, Saccharomyces cerevisiae; format: cell-based; conditions: Saccharomyces cerevisiae, 10 μl of 10 mg/mL per disk, 30° C., 16 hours
Procedure: The hydroxyitraconazole isomers were tested for biological activity according three different assays.
Actively growing cultures of Candida albicans, Cryptococcus neoformens and Saccharomyces cerevisiae were prepared as described above. The cultures were diluted to a 0.5 McFarland standard and swabbed onto a 150 mm Sabouraud Dextrose agar plates. Paper disks (7 mm) were placed onto the agar plates using a disk dispenser. […] The plates were then incubated at 30° C. for 16 hours. Zones of inhibition were then measured in mm.

[5] = target: T1, cytochrome P450 3A4 (Homo sapiens, UniProt P08684); assay: Inhibition of cytochrome P450 3A4 (testosterone 6β-hydroxylase activity)
[6] = test system: S. cerevisae; assay: Antifungal MIC, S. cerevisae; format: cell-based, Saccharomyces cerevisiae; conditions: Saccharomyces cerevisiae
Procedure: [The source words this procedure for another organism and reports this organism under the same test.] as §1

[7] = test system: A. fumigatis; assay: Antifungal MIC, A. fumigatis; format: cell-based; conditions: A. fumigatis (Table 3)
Procedure: [The source words this procedure for another organism and reports this organism under the same test.] as §1

[8] = test system: Cr. neoformens; assay: Antifungal MIC, Cr. neoformens; format: cell-based, Cryptococcus neoformens; conditions: Cryptococcus
Procedure: [The source words this procedure for another organism and reports this organism under the same test.] as §1

[9] = Hydrolysis of phosphate esters in porcine brain; format: in vitro ADME; conditions: both free acid and bis(N-methylglucamine) salt
Procedure: (§2) The phosphate analogs of the isomers with the largest IC50 /MIC ratios, 1, 2 and 3+4 were further investigated for hydrolysis in plasma and tissues. […] The A% conversion (as determined by HPLC A% analysis) of the phosphate ester to the hydroxy compound was determined in three systems: human plasma, equine pancreas and porcine brain. […] Hydrolysis proceeded to >10% overnight at 37° C. in pancreas and brain, and 3% in human plasma. The hydrolyses of the three phosphates of 1, 2 and 3+4 were also studied in various rat tissues and plasma. In all cases, the jejunum and liver gave the greatest conversion to hydroxyitraconazole, ranging from 20% to 40% for the free acids.

[10] = Hydrolysis of phosphate esters in equine pancreas; format: in vitro ADME; conditions: both free acid and bis(N-methylglucamine) salt
Procedure: as §2

[11] = Hydrolysis of phosphate esters in human plasma; format: in vitro ADME; conditions: both free acid and bis(N-methylglucamine) salt
Procedure: as §2

[12] = target: T1, cytochrome P450 3A4
Procedure: The IC50 values were determined by the appearance of 6β-hydroxytestosterone after incubation with testosterone. […] Of greater clinical significance is the ratio of the IC50 for 3A4 to the MIC for C. albicans 44203.

[13] = Candida albicans strain 44203 (Table 4), read-out: MIC
[14] = C. albicans (Table 7, esters), read-out: Antifungal MIC

T1 sequence (P08684 whole entry): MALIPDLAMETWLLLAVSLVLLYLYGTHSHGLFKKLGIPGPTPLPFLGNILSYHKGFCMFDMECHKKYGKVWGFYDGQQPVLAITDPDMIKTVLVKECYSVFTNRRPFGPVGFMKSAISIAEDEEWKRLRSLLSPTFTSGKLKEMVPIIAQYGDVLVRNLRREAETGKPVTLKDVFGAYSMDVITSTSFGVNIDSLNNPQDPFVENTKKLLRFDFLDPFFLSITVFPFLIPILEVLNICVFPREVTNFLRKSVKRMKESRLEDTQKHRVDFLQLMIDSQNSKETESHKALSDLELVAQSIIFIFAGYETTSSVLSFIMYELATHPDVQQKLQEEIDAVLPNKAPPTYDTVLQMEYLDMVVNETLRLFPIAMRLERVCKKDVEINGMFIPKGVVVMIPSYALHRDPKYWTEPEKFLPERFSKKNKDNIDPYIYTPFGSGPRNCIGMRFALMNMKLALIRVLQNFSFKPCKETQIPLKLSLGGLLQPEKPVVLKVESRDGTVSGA

Compound: CC(O)C(C)n1ncn(-c2ccc(N3CCN(c4ccc(OC[C@H]5CO[C@](Cn6cncn6)(c6ccc(Cl)cc6Cl)O5)cc4)CC3)cc2)c1=O (some centres unmarked) [3 + 4]
solubility [2]: 1.97 µg/mL
MIC [3, 13]: 0.1 µg/mL
zone of inhibition at 10000 µg/mL [4]: 23 mm
solubility [1]: 2 µg/mL
selectivity ratio [5]: 24

Compound: CCC(C)n1ncn(-c2ccc(N3CCN(c4ccc(OC[C@H]5CO[C@](Cn6cncn6)(c6ccc(Cl)cc6Cl)O5)cc4)CC3)cc2)c1=O (some centres unmarked) [5 + 6]
MIC [3]: 0.156 µg/mL

Compound: CCC(C)n1ncn(-c2ccc(N3CCN(c4ccc(OC[C@@H]5CO[C@@](Cn6cncn6)(c6ccc(Cl)cc6Cl)O5)cc4)CC3)cc2)c1=O (some centres unmarked) [7 + 8]
MIC [3]: < 0.078 µg/mL

Compound: CC(O)C(C)n1ncn(-c2ccc(N3CCN(c4ccc(OC[C@@H]5CO[C@@](Cn6cncn6)(c6ccc(Cl)cc6Cl)O5)cc4)CC3)cc2)c1=O (some centres unmarked) [11 + 12]
MIC ([6]; S. cerevisae (Table 3)): 0.195 µg/mL
MIC [7]: 0.137 µg/mL
solubility [2]: 0.59 µg/mL
MIC ([3]; C. albicans strain 10231 (Table 3), read-out: Antifungal MIC): 1 µg/mL
MIC ([3]; C. albicans strain 28516 (Table 3), read-out: Antifungal MIC): 0.25 µg/mL
MIC ([3]; C. albicans strain 28815 (Table 3), read-out: Antifungal MIC): 0.125 µg/mL
MIC ([3]; C. albicans strain 44203 (Table 3), read-out: Antifungal MIC): 0.05 µg/mL
MIC ([3]; C. albicans strain 44373 (Table 3), read-out: Antifungal MIC): 0.5 µg/mL
MIC ([3]; C. albicans strain 62342 (Table 3), read-out: Antifungal MIC): 0.5 µg/mL
MIC [3, 13]: 0.05 µg/mL
zone of inhibition at 10000 µg/mL [4]: 25 mm
MIC ([8]; Cr. neoformens (Table 3)): 0.78 µg/mL
selectivity ratio [5]: 6.5

Compound: CC(O)C(C)n1ncn(-c2ccc(N3CCN(c4ccc(OC[C@H]5CO[C@](Cn6cncn6)(c6ccc(Cl)cc6Cl)O5)cc4)CC3)cc2)c1=O (some centres unmarked) [Compound 3 + 4]
Inhibition of P450 3A4 in words [12]: notably less inhibition of the P450 3A4 enzyme than the 2S,4R isomers
IC50/MIC ratio in words ([5]; therapeutic index, 3A4 vs C. albicans 44203): excellent results

More lines, main results first:

solubility [1]: > 100000 µg/mL
Compound: C[C@@H](OP(=O)(O)O)[C@H](C)n1ncn(-c2ccc(N3CCN(c4ccc(OC[C@H]5CO[C@](Cn6cncn6)(c6ccc(Cl)cc6Cl)O5)cc4)CC3)cc2)c1=O [1-PO3 --NMG2]

solubility [1]: > 100000 µg/mL
Compound: C[C@H](OP(=O)(O)O)[C@@H](C)n1ncn(-c2ccc(N3CCN(c4ccc(OC[C@H]5CO[C@](Cn6cncn6)(c6ccc(Cl)cc6Cl)O5)cc4)CC3)cc2)c1=O [2-PO3 --NMG2]

solubility [1]: > 100000 µg/mL
Compound: CC(OP(=O)(O)O)C(C)n1ncn(-c2ccc(N3CCN(c4ccc(OC[C@H]5CO[C@](Cn6cncn6)(c6ccc(Cl)cc6Cl)O5)cc4)CC3)cc2)c1=O (some centres unmarked) [3 + 4-PO3 --NMG2]

MIC ([6]; S. cerevisae (Table 7, esters)): 12.5 µg/mL (≈ 15.6 µM)
MIC [3, 14]: 12.5 µg/mL (≈ 15.6 µM)
MIC ([8]; Cr. neoformens (Table 7, esters)): 12.5 µg/mL (≈ 15.6 µM)
Compound: C[C@H](OP(=O)(O)O)[C@@H](C)n1ncn(-c2ccc(N3CCN(c4ccc(OC[C@H]5CO[C@](Cn6cncn6)(c6ccc(Cl)cc6Cl)O5)cc4)CC3)cc2)c1=O [Compound 2-phosphate]
Ease of hydrolysis of phosphate ester [9]: most readily hydrolyzed compound in all three systems
Ease of hydrolysis of phosphate ester [10]: most readily hydrolyzed compound in all three systems
Ease of hydrolysis of phosphate ester [11]: most readily hydrolyzed compound in all three systems

MIC [3, 14]: 6.25 µg/mL (≈ 7.8 µM)
Compound: C[C@H](OS(=O)(=O)O)[C@@H](C)n1ncn(-c2ccc(N3CCN(c4ccc(OC[C@H]5CO[C@](Cn6cncn6)(c6ccc(Cl)cc6Cl)O5)cc4)CC3)cc2)c1=O [Compound 2-sulfate]

Source: patent US6147077A, “2R,4S-hydroxyitraconazole isomers” (priority 1999, dated 2000)
